Experimental data as given in article PMC6629613, “Selective and competitive inhibition of kynurenine aminotransferase 2 by glycyrrhizic acid and its analogues” (Scientific Reports, 2019).
Where two headings read alike, the source gives them in different places.

Assays:
human KAT2 [1] = target: T1, human KAT2 (Homo sapiens, UniProt Q8N5Z0); experiment: Human KAT2 enzyme inhibition, microplate fluorescence assay of KYNA; format: biochemical
T1 construct: made in house; host or cells: insect Sf9 cells (baculovirus)
Procedure: High-throughput screening assays for inhibitors of human KAT2 were conducted using a microplate fluorescence assay for kynurenine aminotransferase[26] with minor modifications. In these assays, KAT2 enzyme activities were measured in black 384-well untreated plates. The human KAT2 reaction mixture (20 μL) contained 10 ng/μL recombinant human KAT2, 1 mM L-KYN, 1 mM α-ketoglutaric acid, […], 0.005% Tween 20 and 150 mM AMP buffer (pH 9.5), and was added to 384-well plates containing compounds using a Multidrop dispenser (Thermo Fisher Scientific, USA). The compound library comprised about 13,000 compounds from the Drug Discovery Initiative at the University of Tokyo. The compound library includes about 9,600 diverse compounds for pilot screening and about 3,400 known bioactive compounds. All compounds were dissolved and diluted in DMSO to a final concentration of 10 μM. Reaction mixtures were incubated for 2 h at room temperature, and 20 μL aliquots of 300 mM zinc acetate (pH 5.5) were then added directly using a Multidrop dispenser. Fluorescence intensities of KYNA were measured using an ARVO X Multi Label Reader (PerkinElmer, USA) at an excitation wavelength of 340 nm and an emission wavelength of 460 nm. Assay quality was validated by calculating signal–background and Z’ factor. These assays identified approximately 20 candidate KAT2 inhibitors with potent inhibitory activity from about 13,000 compounds. Candidate compounds were validated in quadruplicate KAT2 enzyme activity assays.
Inhibitory activities of the identified compounds against KAT1 and KAT2 were measured using the enzyme activity assays described above. KAT1 reaction mixtures (20 μL) contained 10 ng/μL recombinant human KAT1, 1 mM L-KYN, 1 mM sodium pyruvate, 100 μM PLP, 0.005% Tween 20 and inhibitors at various concentrations in 150 mM 2-amino-2-methyl-1-propanol (AMP) buffer (pH 7.4 or 9.5). […] Following the addition of 20 μL aliquots of 300 mM zinc acetate, fluorescence intensities of KYNA were measured using an ARVO X Multi Label Reader (PerkinElmer, USA).
(§1) To determine steady state kinetic parameters for the substrate L-KYN, 50 μL reaction mixtures containing 10 ng/μL recombinant human KAT2, 1 mM α-KG, 100 μM PLP, 0.005% Tween 20, L-KYN at concentrations of 10, 5, 2.5, 1.25, 0.62, 0.31 and 0.15 mM and GL, GA or CBX or PF-04859989 at 4.5, 6.0 and 3.5 μM and 300 nM, respectively. Following incubation for 30 min at 37 °C, reactions were stopped by adding 3% perchloric acid at a 1:1 ratio. KYNA concentrations were measured using the same HPLC method as described above. Double reciprocal plots were used to determine types of inhibition. Competitive inhibition constants (Ki) for GL, GA and CBX were calculated using the global fit formula (GraphPad Prism v6.07)[60],[61] as follows: v=Vmax∗[S]/(Kmobs+[S])andKmobs=Km×(1+[I]/Ki), where v = initial velocity, Vmax = maximum velocity, [S] = substrate concentration, Km = Michaelis–Menten constant and [I] = inhibitor concentration. The Ki value of PF-04859989 was calculated using the global fit formula as follows: Vmaxinh=Vmax/(1+[I]/Ki)andKmobs=Vmaxinh×[S]/(Km+[S]), where Vmaxinh = maximum enzyme velocity for the concentration of inhibitor. IC50 values were determined by nonlinear curve fitting using GraphPad Prism v6.07. All statistical analyses were performed using GraphPad Prism v6.07.

mouse KAT2 = target: T2, mouse KAT2 (Mus musculus, UniProt Q9WVM8); experiment: Mouse KAT2 enzyme inhibition, microplate fluorescence assay of KYNA; format: biochemical; settings: recombinant mouse KAT2, 1 mM L-KYN, AMP buffer pH 9.5; mean ± SEM
T2 construct: made in house; host or cells: insect Sf9 cells (baculovirus)
Procedure: (§2) Inhibitory activities of the identified compounds against KAT1 and KAT2 were measured using the enzyme activity assays described above. KAT1 reaction mixtures (20 μL) contained 10 ng/μL recombinant human KAT1, 1 mM L-KYN, 1 mM sodium pyruvate, 100 μM PLP, 0.005% Tween 20 and inhibitors at various concentrations in 150 mM 2-amino-2-methyl-1-propanol (AMP) buffer (pH 7.4 or 9.5). Human and mouse KAT2 reaction mixtures (20 μL) contained 10 ng/μL recombinant human or mouse KAT2, 1 mM L-KYN, 1 mM α-ketoglutaric acid, 100 μM PLP, 0.005% Tween 20 and inhibitors at various concentrations in 150 mM AMP buffer (pH 9.5). Following the addition of 20 μL aliquots of 300 mM zinc acetate, fluorescence intensities of KYNA were measured using an ARVO X Multi Label Reader (PerkinElmer, USA).
as §1

human KAT1 = target: T3, human KAT1 (Homo sapiens, UniProt Q16773); experiment: Human KAT1 enzyme inhibition, microplate fluorescence assay of KYNA; format: biochemical; settings: recombinant human KAT1, 1 mM L-KYN, 1 mM sodium pyruvate
T3 construct: made in house; host or cells: insect Sf9 cells (baculovirus)
T3 sequence (Q16773 1-422): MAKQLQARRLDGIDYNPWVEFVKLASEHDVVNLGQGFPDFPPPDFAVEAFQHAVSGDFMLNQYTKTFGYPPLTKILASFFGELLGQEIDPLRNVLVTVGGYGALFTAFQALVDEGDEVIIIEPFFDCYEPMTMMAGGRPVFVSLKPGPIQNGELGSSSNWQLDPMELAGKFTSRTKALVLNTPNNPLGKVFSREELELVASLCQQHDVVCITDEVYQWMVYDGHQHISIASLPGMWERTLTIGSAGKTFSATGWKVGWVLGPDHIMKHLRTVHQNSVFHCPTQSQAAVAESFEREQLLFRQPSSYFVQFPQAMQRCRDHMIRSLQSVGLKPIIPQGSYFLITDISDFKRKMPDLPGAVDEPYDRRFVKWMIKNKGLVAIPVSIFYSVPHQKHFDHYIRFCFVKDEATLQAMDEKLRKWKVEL
Procedure: as §2, §1

human KAT3 = target: T4, human KAT3 (Homo sapiens, UniProt Q6YP21); experiment: Human KAT3 enzyme inhibition, HPLC analysis of KYNA; format: biochemical; settings: recombinant human KAT3, 1 mM L-KYN, AMP buffer pH 9.5, HPLC; mean ± SEM
T4 construct: purchased OriGene Technologies, Inc
Procedure: KAT3 and KAT4 enzyme activities were measured using high performance liquid chromatography (HPLC) analyses of reaction products. Briefly, KAT3 reaction mixtures (50 μL) contained 10 ng/μL recombinant human KAT3, 1 mM L-KYN, 1 mM sodium pyruvate, 100 μM PLP, 0.005% Tween 20 and inhibitors at various concentrations in 150 mM AMP buffer (pH 9.5). KAT4 reaction mixtures (50 μL) contained recombinant human KAT4, 1 mM L-KYN, 1 mM α-ketoglutaric acid, 100 μM PLP, 0.005% Tween 20 and inhibitors at various concentrations in 100 mM Tris buffer (pH 7.5). Reaction mixtures were incubated for 1 h at 37 °C and reactions were then stopped by adding 3% perchloric acid at a ratio of 1:1. KYNA contents of reaction mixtures were then determined using HPLC (Shimadzu, Kyoto, Japan) following isocratic elution from a reverse-phase column (TSKgel ODS-100V, 3 μm, 4.6 mm [ID] × 150 mm [L]; Tosoh, Tokyo, Japan) using a mobile phase containing 10 mM sodium acetate with 2% acetonitrile (pH adjusted to 4.5) at flow rate of 0.8 mL/min. KYNA was detected using a fluorescence detector (RF-20Axs) at an excitation wavelength of 344 nm and an emission wavelength of 380 nm. […]

human KAT4 = target: T5, human KAT4 (Homo sapiens, UniProt P00505); experiment: Human KAT4 enzyme inhibition, HPLC analysis of KYNA; format: biochemical; settings: recombinant human KAT4, 1 mM L-KYN, Tris buffer pH 7.5, HPLC
T5 construct: made in house; host or cells: insect Sf9 cells (baculovirus)
T5 sequence (P00505 30-430): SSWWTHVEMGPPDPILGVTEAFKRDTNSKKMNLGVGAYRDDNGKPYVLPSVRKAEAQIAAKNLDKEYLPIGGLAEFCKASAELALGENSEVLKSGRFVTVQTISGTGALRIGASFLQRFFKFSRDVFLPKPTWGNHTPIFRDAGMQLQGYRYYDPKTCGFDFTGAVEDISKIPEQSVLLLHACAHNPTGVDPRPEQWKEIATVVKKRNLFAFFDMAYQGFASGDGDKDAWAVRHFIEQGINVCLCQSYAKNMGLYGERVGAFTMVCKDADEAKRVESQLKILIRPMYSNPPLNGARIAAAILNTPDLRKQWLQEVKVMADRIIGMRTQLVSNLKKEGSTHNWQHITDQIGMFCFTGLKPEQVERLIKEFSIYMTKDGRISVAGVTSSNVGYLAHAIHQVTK
Procedure: KAT3 and KAT4 enzyme activities were measured using high performance liquid chromatography (HPLC) analyses of reaction products. Briefly, KAT3 reaction mixtures (50 μL) contained 10 ng/μL recombinant human KAT3, 1 mM L-KYN, 1 mM sodium pyruvate, 100 μM PLP, 0.005% Tween 20 and inhibitors at various concentrations in 150 mM AMP buffer (pH 9.5). KAT4 reaction mixtures (50 μL) contained recombinant human KAT4, 1 mM L-KYN, 1 mM α-ketoglutaric acid, 100 μM PLP, 0.005% Tween 20 and inhibitors at various concentrations in 100 mM Tris buffer (pH 7.5). Reaction mixtures were incubated for 1 h at 37 °C and reactions were then stopped by adding 3% perchloric acid at a ratio of 1:1. KYNA contents of reaction mixtures were then determined using HPLC (Shimadzu, Kyoto, Japan) following isocratic elution from a reverse-phase column (TSKgel ODS-100V, 3 μm, 4.6 mm [ID] × 150 mm [L]; Tosoh, Tokyo, Japan) using a mobile phase containing 10 mM sodium acetate with 2% acetonitrile (pH adjusted to 4.5) at flow rate of 0.8 mL/min. KYNA was detected using a fluorescence detector (RF-20Axs) at an excitation wavelength of 344 nm and an emission wavelength of 380 nm.
as §1, with “Double reciprocal plots were used to determine types of inhibition.” left out, “The Ki value of PF-04859989 was calculated using the global fit formula as follows: Vmaxinh=Vmax/(1+[I]/Ki)andKmobs=Vmaxinh×[S]/(Km+[S]), where Vmaxinh = maximum enzyme velocity for the concentration of inhibitor.” left out, “All statistical analyses were performed using GraphPad Prism v6.07.” left out

human KAT2 [2] = target: T1, human KAT2; experiment: Human KAT2 inhibition kinetics with varying KYN (Lineweaver-Burk, global fit), HPLC; format: biochemical; settings: for Ki: global fit formula, mean ± SEM, read-out: Ki (inhibition constant); for type of inhibition: inhibitor close to its IC50, Lineweaver-Burk
Procedure: as §1

[3] = cited from earlier work
human KAT2 [4] = target: T1, human KAT2; design: method as in PMID 18537204, PMID 27367665; settings: read-out: reported IC50; cited from earlier work
[5] = human KAT2 at physiological conditions (pH 7.4)
[6] = recombinant human KAT2, 1 mM L-KYN, AMP buffer pH 9.5, mean ± SEM, three experiments

T2 sequence (Q9WVM8 30-425): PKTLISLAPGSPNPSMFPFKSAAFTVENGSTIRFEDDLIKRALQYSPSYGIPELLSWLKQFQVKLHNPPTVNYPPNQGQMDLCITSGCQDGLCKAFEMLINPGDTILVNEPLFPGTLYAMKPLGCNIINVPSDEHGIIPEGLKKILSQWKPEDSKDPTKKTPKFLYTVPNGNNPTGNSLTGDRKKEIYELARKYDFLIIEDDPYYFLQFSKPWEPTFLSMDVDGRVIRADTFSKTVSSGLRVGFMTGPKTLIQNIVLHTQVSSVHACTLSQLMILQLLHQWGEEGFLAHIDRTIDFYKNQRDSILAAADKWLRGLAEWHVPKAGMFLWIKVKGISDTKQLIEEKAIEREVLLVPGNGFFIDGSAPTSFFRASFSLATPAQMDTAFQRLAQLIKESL
T1 sequence (Q8N5Z0 30-425): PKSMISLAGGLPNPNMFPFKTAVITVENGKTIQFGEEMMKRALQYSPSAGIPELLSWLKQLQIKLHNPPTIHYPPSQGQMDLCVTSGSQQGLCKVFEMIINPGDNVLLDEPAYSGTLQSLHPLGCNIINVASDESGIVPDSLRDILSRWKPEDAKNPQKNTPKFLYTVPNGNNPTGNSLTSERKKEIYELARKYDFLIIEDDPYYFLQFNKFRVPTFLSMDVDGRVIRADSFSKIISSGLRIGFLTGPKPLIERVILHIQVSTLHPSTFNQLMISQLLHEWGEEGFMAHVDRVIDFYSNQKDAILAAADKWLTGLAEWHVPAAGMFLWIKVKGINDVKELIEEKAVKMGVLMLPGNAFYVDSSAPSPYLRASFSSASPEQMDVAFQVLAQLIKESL
T4 sequence (Q6YP21 whole entry): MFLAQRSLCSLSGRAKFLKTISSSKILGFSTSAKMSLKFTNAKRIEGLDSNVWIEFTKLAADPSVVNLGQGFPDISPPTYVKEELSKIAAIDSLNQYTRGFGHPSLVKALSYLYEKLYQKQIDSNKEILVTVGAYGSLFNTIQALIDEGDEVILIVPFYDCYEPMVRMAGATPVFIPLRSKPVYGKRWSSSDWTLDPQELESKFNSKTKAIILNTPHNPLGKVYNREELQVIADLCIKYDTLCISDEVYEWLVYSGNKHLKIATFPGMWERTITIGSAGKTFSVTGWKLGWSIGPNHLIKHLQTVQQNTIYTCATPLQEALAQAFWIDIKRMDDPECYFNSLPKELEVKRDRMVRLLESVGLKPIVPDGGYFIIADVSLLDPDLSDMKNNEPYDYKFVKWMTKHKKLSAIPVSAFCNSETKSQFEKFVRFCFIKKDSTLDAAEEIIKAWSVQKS

Compound	IC50 (human KAT2 [1]; [5]) [µM]	IC50 (human KAT2 [1]; [6]) [µM]	IC50 (mouse KAT2) [µM]	IC50 (human KAT1) [µM]	IC50 (human KAT3) [µM]	IC50 (human KAT4) [µM]	Ki (human KAT2 [2]) [µM]	type of inhibition (human KAT2 [2])	passage through the BBB [3]	IC50 (human KAT2 [4]) [µM]	IC50 (human KAT2 [1]; KAT2, as determined in our assays) [µM]
CC1(C)[C@@H](OC(=O)CCC(=O)O)CC[C@]2(C)[C@H]3C(=O)C=C4[C@@H]5C[C@@](C)(C(=O)O)CC[C@]5(C)CC[C@@]4(C)[C@]3(C)CC[C@@H]12 [CBX, carbenoxolone]	3.34 ± 0.25	3.9 ± 0.37	19.8 ± 0.34	> 500	> 500	> 500	4.11 ± 0.37	competitive inhibitors of KYN	failed to pass through the BBB		
CC1(C)[C@@H](O)CC[C@]2(C)[C@H]3C(=O)C=C4[C@@H]5C[C@@](C)(C(=O)O)CC[C@]5(C)CC[C@@]4(C)[C@]3(C)CC[C@@H]12 [GA, glycyrrhetinic acid]	9.87 ± 0.32	6.96 ± 0.37	56.8 ± 1.45	> 500		> 500	6.92 ± 0.6	competitive inhibitors of KYN			
CC1(C)[C@@H](O[C@H]2O[C@H](C(=O)O)[C@@H](O)[C@H](O)[C@H]2O[C@@H]2O[C@H](C(=O)O)[C@@H](O)[C@H](O)[C@H]2O)CC[C@]2(C)[C@H]3C(=O)C=C4[C@@H]5C[C@@](C)(C(=O)O)CC[C@]5(C)CC[C@@]4(C)[C@]3(C)CC[C@@H]12 [GL, glycyrrhizic acid]	7.93 ± 0.17	4.51 ± 0.2	86.2 ± 1.94	> 500	> 500	> 500	10.4 ± 1.62	competitive inhibitors of KYN			
O=C(O)C(Cc1ccccc1)N1C(=O)c2cc(Cl)c(Cl)cc2C1=O (centres unmarked) [NS-1502]										315	
N[C@H]1Cc2ccccc2N(O)C1=O [PF-04859989]							0.22 ± 0.01	maximum reaction rates (Vmax) varied but the Michaelis–Menten constant (Km) did not change			0.3
(S)-4-(ethylsulfonyl)benzoylalanine [S-ESBA]										~1000	
